Laboratory results reported in US20130165641A1, “6,11-BRIDGED BIARYL MACROLIDES” (Enanta Pharmaceuticals, Inc., priority 2007, published 2013).
≈ marks a conversion by molar mass, not a printed value.

Tested on: MRSA
Assay: MIC by micro-dilution method, MRSA isolates
Type: cell-based, Staphylococcus aureus
Details: compounds of Formula XVI; for MIC MRSA 7662: MRSA isolate 7662; for MIC MRSA 33591: MRSA isolate 33591
Protocol: Susceptibility tests can be used to quantitatively measure the in vitro activity of an antimicrobial agent against a given bacterial isolate. Compounds are tested for in vitro antibacterial activity by a micro-dilution method. Minimal Inhibitory Concentration (MIC) is determined in 96 well microtiter plates utilizing the appropriate broth medium for the observed bacterial isolates. […] The diluted compounds (2 μl/well) are then transferred into sterile, uninoculated medium (0.2 mL) by use of a 96 fixed tip-pipetting station. The inoculum for each bacterial strain is standardized to approximately 5×10^5 CFU/mL by optical comparison to a 0.5 McFarland turbidity standard. The plates are inoculated with 10 μl/well of adjusted bacterial inoculum. The 96 well plates are covered and incubated at 35+/−2° C. for 24 hours in ambient air environment. Following incubation, plate wells are visually examined by Optical Density measurement for the presence of growth (turbidity). The lowest concentration of an antimicrobial agent at which no visible growth occurs is defined as the MIC.
All in vitro testing follows the guidelines described in the Approved Standards M7-A7 protocol, published by the Clinical Laboratory Standards Institute (CLSI).

Structure (SMILES) | MIC MRSA 7662 | MIC MRSA 33591
CCC1OC(=O)C(C)(F)C(=O)C(C)C(OC2OC(C)CC(N(C)C)C2O)C2(C)CC(C)C(=NC(C)=O)C(C)C(OCC(=NOCc3ccc(-n4ccc(N)n4)nc3)CO2)C1(C)O (centres unmarked) [Example 78] | 8 µg/mL (≈ 9.15 µM) | 8 µg/mL (≈ 9.15 µM)
C=Cc1cn(-c2ccc(CON=C3COC4C(C)C(=NC(C)=O)C(C)CC(C)(OC3)C(OC3OC(C)CC(N(C)C)C3O)C(C)C(=O)C(C)(F)C(=O)OC(CC)C4(C)O)nc2)nc1N (centres unmarked) [Example 96] | 8 µg/mL (≈ 8.89 µM) | 8 µg/mL (≈ 8.89 µM)
CCC1OC(=O)C(C)(F)C(=O)C(C)C(OC2OC(C)CC(N(C)C)C2O)C2(C)CC(C)C(=NC(=O)C3CC3)C(C)C(OCC(=NOCc3ccc(-c4cccc(N)n4)cn3)CO2)C1(C)O (centres unmarked) [Example 77] | 8 µg/mL (≈ 8.78 µM) | 8 µg/mL (≈ 8.78 µM)
CCCC(=O)N=C1C(C)CC2(C)OCC(=NOCc3ccc(-c4cccc(N)n4)cn3)COC(C1C)C(C)(O)C(CC)OC(=O)C(C)(F)C(=O)C(C)C2OC1OC(C)CC(N(C)C)C1O (centres unmarked) [Example 76] | 4 µg/mL (≈ 4.38 µM) | 4 µg/mL (≈ 4.38 µM)
CCC(=O)N=C1[C@H](C)C[C@@]2(C)OC/C(=N/OCc3ncc(-c4nc(N)cs4)cn3)CO[C@H]([C@H]1C)[C@](C)(O)[C@@H](CC)OC(=O)[C@@](C)(F)C(=O)[C@H](C)[C@H]2O[C@@H]1O[C@H](C)C[C@H](N(C)C)[C@H]1O [Example 132] | 2.00 µg/mL (≈ 2.21 µM) | 4.00 µg/mL (≈ 4.41 µM)
CC[C@H]1OC(=O)[C@@](C)(F)C(=O)[C@H](C)[C@@H](O[C@@H]2O[C@H](C)C[C@H](N(C)C)[C@H]2O)[C@@]2(C)C[C@@H](C)C(=NC(=O)C(C)C)[C@H](C)[C@@H](OC/C(=N\OCc3ncc(-c4cccc(N)n4)cn3)CO2)[C@]1(C)O [Example 100] | 8 µg/mL (≈ 8.75 µM) | 8 µg/mL (≈ 8.75 µM)
CCC1OC(=O)C(C)C(=O)C(C)C(OC2OC(C)CC(N(C)C)C2O)C2(C)CC(C)C(=NC(=O)C(C)C)C(C)C(OCC(=NOCc3ccc(-n4ccc(N)n4)cc3F)CO2)C1(C)O (centres unmarked) [Example 98] | 8 µg/mL (≈ 8.88 µM) | 8 µg/mL (≈ 8.88 µM)
CCC(=O)N=C1[C@H](C)C[C@@]2(C)OC/C(=N/OCc3ccc(-c4nc(N)cs4)cc3)CO[C@H]([C@H]1C)[C@](C)(O)[C@@H](CC)OC(=O)[C@H](C)C(=O)[C@H](C)[C@H]2O[C@@H]1O[C@H](C)C[C@H](N(C)C)[C@H]1O [Example 121] | 8 µg/mL (≈ 9.03 µM) | 8 µg/mL (≈ 9.03 µM)
CCC1OC(=O)C(C)(F)C(=O)C(C)C(OC2OC(C)CC(N(C)C)C2O)C2(C)CC(C)C(=NC(=O)C3CC3)C(C)C(OCC(=NOCc3ccc(-n4ccc(N)n4)cc3)CO2)C1(C)O (centres unmarked) [Example 93] | 8 µg/mL (≈ 8.9 µM) | 8 µg/mL (≈ 8.9 µM)
CC[C@H]1OC(=O)[C@@](C)(F)C(=O)[C@H](C)[C@@H](O[C@@H]2O[C@H](C)C[C@H](N(C)C)[C@H]2O)[C@@]2(C)C[C@@H](C)C(=NC(=O)C(C)C)[C@H](C)[C@@H](OC/C(=N\OCc3coc(-c4cccc(N)n4)n3)CO2)[C@]1(C)O [Example 118] | 4 µg/mL (≈ 4.43 µM) | 8 µg/mL (≈ 8.86 µM)
CC[C@H]1OC(=O)[C@@](C)(F)C(=O)[C@H](C)[C@@H](O[C@@H]2O[C@H](C)C[C@H](N(C)C)[C@H]2O)[C@@]2(C)C[C@@H](C)C(=NC(=O)C(C)C)[C@H](C)[C@@H](OC/C(=N\OCc3ccc(-c4nsc(N)n4)cn3)CO2)[C@]1(C)O [Example 130] | 2.00 µg/mL (≈ 2.17 µM) | 4.00 µg/mL (≈ 4.35 µM)
CCC(=O)N=C1[C@H](C)C[C@@]2(C)OC/C(=N/OCc3ccc(-c4nsc(N)n4)nc3)CO[C@H]([C@H]1C)[C@](C)(O)[C@@H](CC)OC(=O)[C@@](C)(F)C(=O)[C@H](C)[C@H]2O[C@@H]1O[C@H](C)C[C@H](N(C)C)[C@H]1O [Example 129] | 4.00 µg/mL (≈ 4.41 µM) | 8.00 µg/mL (≈ 8.83 µM)
CCC(=O)N=C1[C@H](C)C[C@@]2(C)OC/C(=N/OCc3cnc(-c4cccc(N)n4)s3)CO[C@H]([C@H]1C)[C@](C)(O)[C@@H](CC)OC(=O)[C@@](C)(F)C(=O)[C@H](C)[C@H]2O[C@@H]1O[C@H](C)C[C@H](N(C)C)[C@H]1O [Example 117] | 2 µg/mL (≈ 2.21 µM) | 4 µg/mL (≈ 4.42 µM)
CC[C@H]1OC(=O)[C@@](C)(F)C(=O)[C@H](C)[C@@H](O[C@@H]2O[C@H](C)C[C@H](N(C)C)[C@H]2O)[C@@]2(C)C[C@@H](C)C(=NC(C)=O)[C@H](C)[C@@H](OC/C(=N\OCc3ccc(-c4nccc(N)n4)cn3)CO2)[C@]1(C)O [Example 102] | 8 µg/mL (≈ 9.03 µM) | 8 µg/mL (≈ 9.03 µM)
CC[C@H]1OC(=O)[C@@](C)(F)C(=O)[C@H](C)[C@@H](O[C@@H]2O[C@H](C)C[C@H](N(C)C)[C@H]2O)[C@@]2(C)C[C@@H](C)C(=NC(=O)OC)[C@H](C)[C@@H](OC/C(=N\OCc3ccc(-n4ccc(N)n4)cn3)CO2)[C@]1(C)O [Example 124] | 4.00 µg/mL (≈ 4.49 µM) | 8.00 µg/mL (≈ 8.99 µM)
CCC1OC(=O)C(C)(F)C(=O)C(C)C(OC2OC(C)CC(N(C)C)C2O)C2(C)CC(C)C(=NC(C)=O)C(C)C(OCC(=NOCc3cnc(-c4cccc(N)n4)s3)CO2)C1(C)O (centres unmarked) [Example 97] | 8 µg/mL (≈ 8.98 µM) | 8 µg/mL (≈ 8.98 µM)
CCC(=O)N=C1[C@H](C)C[C@@]2(C)OC/C(=N/OCc3ncc(-c4cccc(N)n4)s3)CO[C@H]([C@H]1C)[C@](C)(O)[C@@H](CC)OC(=O)[C@@](C)(F)C(=O)[C@H](C)[C@H]2O[C@@H]1O[C@H](C)C[C@H](N(C)C)[C@H]1O [Example 110] | 2 µg/mL (≈ 2.21 µM) | 2 µg/mL (≈ 2.21 µM)
CCC1OC(=O)C(C)(F)C(=O)C(C)C(OC2OC(C)CC(N(C)C)C2O)C2(C)CC(C)C(=NC(C)=O)C(C)C(OCC(=NOCc3ccc(-c4cccc(N)n4)cn3)CO2)C1(C)O (centres unmarked) [Example 74] | 8 µg/mL (≈ 9.04 µM) | 8 µg/mL (≈ 9.04 µM)
CCC(=O)N=C1C(C)CC2(C)OCC(=NOCc3ccc(-n4ccc(N)n4)cc3)COC(C1C)C(C)(O)C(CC)OC(=O)C(C)C(=O)C(C)C2OC1OC(C)CC(N(C)C)C1O (centres unmarked) [Example 83] | 2 µg/mL (≈ 2.3 µM) | 4 µg/mL (≈ 4.6 µM)
CCC1OC(=O)C(C)C(=O)C(C)C(OC2OC(C)CC(N(C)C)C2O)C2(C)CC(C)C(=NC(=O)C(C)C)C(C)C(OCC(=NOCc3ccc(-n4ccc(N)n4)cc3)CO2)C1(C)O (centres unmarked) [Example 90] | 8 µg/mL (≈ 9.06 µM) | 8 µg/mL (≈ 9.06 µM)
CCC(=O)N=C1[C@H](C)C[C@@]2(C)OC/C(=N/OCc3ccc(-c4csc(N)n4)cn3)CO[C@H]([C@H]1C)[C@](C)(O)[C@@H](CC)OC(=O)[C@@](C)(F)C(=O)[C@H](C)[C@H]2O[C@@H]1O[C@H](C)C[C@H](N(C)C)[C@H]1O [Example 125] | 4 µg/mL (≈ 4.42 µM) | 8 µg/mL (≈ 8.84 µM)
CCC(=O)N=C1C(C)CC2(C)OCC(=NOCc3ccc(-n4ccc(N)n4)cn3)COC(C1C)C(C)(O)C(CC)OC(=O)C(C)(F)C(=O)C(C)C2OC1OC(C)CC(N(C)C)C1O (centres unmarked) [Example 92] | 2 µg/mL (≈ 2.25 µM) | 4 µg/mL (≈ 4.5 µM)
CC[C@H]1OC(=O)[C@H](C)C(=O)[C@H](C)[C@@H](O[C@@H]2O[C@H](C)C[C@H](N(C)C)[C@H]2O)[C@@]2(C)C[C@@H](C)C(=NC(C)=O)[C@H](C)[C@@H](OC/C(=N\OCc3ccc(-c4nc(N)cs4)cn3)CO2)[C@]1(C)O [Example 108] | 8 µg/mL (≈ 9.16 µM) | 8 µg/mL (≈ 9.16 µM)
CC[C@H]1OC(=O)[C@@](C)(F)C(=O)[C@H](C)[C@@H](O[C@@H]2O[C@H](C)C[C@H](N(C)C)[C@H]2O)[C@@]2(C)C[C@@H](C)C(=NC(C)=O)[C@H](C)[C@@H](OC/C(=N\OCc3ccc(-c4csc(N)n4)cn3)CO2)[C@]1(C)O [Example 104] | 8 µg/mL (≈ 8.98 µM) | 8 µg/mL (≈ 8.98 µM)
CC[C@H]1OC(=O)[C@@](C)(F)C(=O)[C@H](C)[C@@H](O[C@@H]2O[C@H](C)C[C@H](N(C)C)[C@H]2O)[C@@]2(C)C[C@@H](C)C(=NC(=O)C3CC3)[C@H](C)[C@@H](OC/C(=N\OCc3ncc(-c4cccc(N)n4)s3)CO2)[C@]1(C)O [Example 112] | 4 µg/mL (≈ 4.36 µM) | 8 µg/mL (≈ 8.72 µM)
CCC1OC(=O)C(C)C(=O)C(C)C(OC2OC(C)CC(N(C)C)C2O)C2(C)CC(C)C(=NC(C)=O)C(C)C(OCC(=NOCc3ccc(-n4ccc(N)n4)cc3F)CO2)C1(C)O (centres unmarked) [Example 84] | 8 µg/mL (≈ 9.16 µM) | 8 µg/mL (≈ 9.16 µM)
CCC1OC(=O)C(C)(F)C(=O)C(C)C(OC2OC(C)CC(N(C)C)C2O)C2(C)CC(C)C(=NC(C)=O)C(C)C(OCC(=NOCc3ccc(-n4ccc(N)n4)cc3Cl)CO2)C1(C)O (centres unmarked) [Example 89] | 4 µg/mL (≈ 4.41 µM) | 4 µg/mL (≈ 4.41 µM)
CCC1OC(=O)C(C)(F)C(=O)C(C)C(OC2OC(C)CC(N(C)C)C2O)C2(C)CC(C)C(=NC(=O)C(C)C)C(C)C(OCC(=NOCc3ccc(-n4ccc(N)n4)nc3)CO2)C1(C)O (centres unmarked) [Example 86] | 4 µg/mL (≈ 4.43 µM) | 4 µg/mL (≈ 4.43 µM)
